Target: T1, USP1/UAF1 (Homo sapiens, UniProt O94782)
T1 construct: purchased R&D Systems
Assay: Deubiquitination assay for USP1/UAF1 (ubiquitin-rhodamine 110 substrate)
Format: biochemical
Details: 0.5 nM USP1/UAF1, 150 nM ubiquitin-rhodamine, 50% inhibition compared to DMSO control
Description: Deubiquitination assay for USP1/UAF1: compounds described here were tested for their ability to inhibit USP1 deubiquitinase activity in this assay using ubiquitin-rhodamine 110 as the substrate. The assay was conducted in the assay buffer (50 mM Tris-HCl, pH 7.8, 0.5 mM EDTA, 0.1 mg/ml Bovine Serum Albumin, 1 mM DTT, 0.01% Tween-20) in 384 well plates. 0.5 nM USP1/UAF1 (R&D Systems) was incubated with compounds in dose response format for 10 minutes at room temperature. Then the reaction was initiated by addition of 150 nM ubiquitin-rhodamine (R&D Systems). The fluorescence intensity was read after 45 minutes at Ex488/Em535 by CLARIOstar (BMG Labtech). IC50 response curves were plotted.

T1 sequence (O94782 whole entry): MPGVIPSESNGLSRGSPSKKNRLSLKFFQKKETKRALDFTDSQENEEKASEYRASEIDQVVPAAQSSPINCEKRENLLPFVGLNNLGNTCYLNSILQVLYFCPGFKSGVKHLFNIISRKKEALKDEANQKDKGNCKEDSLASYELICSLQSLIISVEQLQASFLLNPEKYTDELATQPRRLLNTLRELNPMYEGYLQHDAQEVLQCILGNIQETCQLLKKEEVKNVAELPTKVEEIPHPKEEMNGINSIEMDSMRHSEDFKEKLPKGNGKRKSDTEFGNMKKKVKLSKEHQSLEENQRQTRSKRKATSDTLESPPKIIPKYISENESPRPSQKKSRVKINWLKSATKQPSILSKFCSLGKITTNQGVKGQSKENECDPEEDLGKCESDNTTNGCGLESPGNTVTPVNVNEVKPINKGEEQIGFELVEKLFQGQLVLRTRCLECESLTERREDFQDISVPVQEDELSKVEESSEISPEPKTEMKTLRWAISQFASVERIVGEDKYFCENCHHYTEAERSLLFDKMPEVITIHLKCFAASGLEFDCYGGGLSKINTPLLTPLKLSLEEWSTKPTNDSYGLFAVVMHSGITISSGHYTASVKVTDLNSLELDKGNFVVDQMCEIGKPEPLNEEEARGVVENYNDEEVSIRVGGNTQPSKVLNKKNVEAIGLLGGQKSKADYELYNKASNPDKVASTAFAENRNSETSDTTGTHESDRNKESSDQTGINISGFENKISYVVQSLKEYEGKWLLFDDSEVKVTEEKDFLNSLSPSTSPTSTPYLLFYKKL
T1 sequence (Q8TAF3 whole entry partner): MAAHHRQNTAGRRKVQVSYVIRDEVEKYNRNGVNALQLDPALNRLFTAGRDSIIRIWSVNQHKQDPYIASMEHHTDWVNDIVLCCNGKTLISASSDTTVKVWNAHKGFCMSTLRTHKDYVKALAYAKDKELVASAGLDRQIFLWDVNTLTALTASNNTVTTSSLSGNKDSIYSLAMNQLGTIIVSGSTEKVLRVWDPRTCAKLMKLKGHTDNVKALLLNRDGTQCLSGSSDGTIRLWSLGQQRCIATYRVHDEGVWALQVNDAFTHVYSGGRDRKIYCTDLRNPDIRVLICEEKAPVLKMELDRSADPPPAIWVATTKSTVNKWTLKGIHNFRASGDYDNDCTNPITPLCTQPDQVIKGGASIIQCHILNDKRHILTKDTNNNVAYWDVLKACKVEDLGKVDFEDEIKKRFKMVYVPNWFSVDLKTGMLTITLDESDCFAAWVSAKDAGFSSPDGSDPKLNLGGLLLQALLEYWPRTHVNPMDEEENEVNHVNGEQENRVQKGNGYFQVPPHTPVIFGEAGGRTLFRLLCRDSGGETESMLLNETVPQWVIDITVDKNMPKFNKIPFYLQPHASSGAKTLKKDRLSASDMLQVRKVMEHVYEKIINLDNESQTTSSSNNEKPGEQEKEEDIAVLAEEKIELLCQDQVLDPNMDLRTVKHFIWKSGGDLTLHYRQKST

| Molecule | IC50 |
| --- | --- |
| 1^6-cyclopropyl-4^4-(1-isopropyl-4-(trifluoromethyl)-1H-imidazol-2-yl)-2^1-methyl-2^1H-5,8-dioxa-2(5,3)-pyrazolo[4,3-d]pyrimidina-1(5,4)-pyrimidina-4(1,2)-benzenacyclooctaphane [Example 22] | ≤ 100 nM |
| 1^6-cyclopropyl-4^4-(1-isopropyl-4-(trifluoromethyl)-1H-imidazol-2-yl)-2^1H-9-oxa-5-aza-2(6,1)-pyrazolo[3,4-d]pyrimidina-1(5,4)-pyrimidina-4(1,2)-benzenacyclononaphan-6-one [Example 15] | ≥ 1000 nM |
| 1^6-cyclopropyl-4^4-(1-isopropyl-4-(trifluoromethyl)-1H-imidazol-2-yl)-2^1H-9-oxa-5-aza-2(6,1)-pyrazolo[3,4-d]pyrimidina-1(5,4)-pyrimidina-4(1,3)-benzenacyclonona-phane [Example 50] | ≤ 100 nM |
| Cc1cnc2nc1NCc1ccc(-c3nc(C(F)(F)F)cn3C(C)C)cc1OCCOc1ncnc(C3CC3)c1-2 [Example 1, 1^6-cyclopropyl-5^4-(1-isopropyl-4-(trifluoromethyl)-1H-imidazol-2-yl)-2^5-methyl-6,9-dioxa-3-aza-1(5,4),2(2,4)-dipyrimidina-5(1,2)-benzenacyclononaphane] | ≤ 100 nM |
| CC(C)n1cc(C(F)(F)F)nc1-c1ccc2c(c1)OCCOc1ncnc(C3CC3)c1-c1ncc3cnn(c3n1)C2 [Example 2, 1^6-cyclopropyl-4^4-(1-isopropyl-4-(trifluoromethyl)-1H-imidazol-2-yl)-2^1H-5,8-dioxa-2(6,1)-pyrazolo[3,4-d]pyrimidina-1(5,4)-pyrimidina-4(1,2)-benzenacyclooctaphane] | ≤ 100 nM |
| CC(C)n1cc(C(F)(F)F)nc1-c1ccc2c(c1)OCCCCOc1ncnc(C3CC3)c1-c1ncc3cnn(c3n1)C2 [Example 3, 1^6-cyclopropyl-4^4-(1-isopropyl-4-(trifluoromethyl)-1H-imidazol-2-yl)-2^1H-5,10-dioxa-2(6,1)-pyrazolo[3,4-d]pyrimidina-1(5,4)-pyrimidina-4(1,2)-benzenacyclodecaphane] | ≥ 1000 nM |
| CC(C)n1cc(C(F)(F)F)nc1-c1ccc2c(c1)CCOc1ncnc(C3CC3)c1-c1ncc3cnn(c3n1)C2 [Example 4, 1^6-cyclopropyl-4^4-(1-isopropyl-4-(trifluoromethyl)-1H-imidazol-2-yl)-2^1H-7-oxa-2(6,1)-pyrazolo[3,4-d]pyrimidina-1(5,4)-pyrimidina-4(1,2)-benzenacycloheptaphane] | ≥ 1000 nM |
| CC(C)n1cc(C(F)(F)F)nc1-c1ccc2c(c1)OCCCOc1ncnc(C3CC3)c1-c1ncc3cnn(c3n1)C2 [Example 5, 1^6-cyclopropyl-4^4-(1-isopropyl-4-(trifluoromethyl)-1H-imidazol-2-yl)-2^1H-5,9-dioxa-2(6,1)-pyrazolo[3,4-d]pyrimidina-1(5,4)-pyrimidina-4(1,2)-benzenacyclononaphane] | ≤ 100 nM |
| CC(C)c1cccc2c1-c1ncc3cnn(c3n1)Cc1ccc(-c3nc(C(F)(F)F)cn3C(C)C)cc1OCCO2 [Example 7, 1^6-isopropyl-4^4-(1-isopropyl-4-(trifluoromethyl)-1H-imidazol-2-yl)-2^1H-5,8-dioxa-2(6,1)-pyrazolo[3,4-d]pyrimidina-1,4(1,2)-dibenzenacyclooctaphane] | ≤ 100 nM |
| CC(C)n1cc(C(F)(F)F)nc1-c1ccc2c(c1)NCCCOc1ncnc(C3CC3)c1-c1ncc3cnn(c3n1)C2 [Example 8, 1^6-cyclopropyl-4^4-(1-isopropyl-4-(trifluoromethyl)-1H-imidazol-2-yl)-2^1H-9-oxa-5-aza-2(6,1)-pyrazolo[3,4-d]pyrimidina-1(5,4)-pyrimidina-4(1,2)-benzenacyclononaphane] | ≤ 100 nM |
| CC(C)n1cc(C(F)(F)F)nc1-c1ccc2c(c1)CCCOc1ncnc(C3CC3)c1-c1ncc3cnn(c3n1)C2 [Example 9, 1^6-cyclopropyl-4^4-(1-isopropyl-4-(trifluoromethyl)-1H-imidazol-2-yl)-2^1H-8-oxa-2(6,1)-pyrazolo[3,4-d]pyrimidina-1(5,4)-pyrimidina-4(1,2)-benzenacyclooctaphane] | ≤ 100 nM |
| CC(C)n1cc(C(F)(F)F)nc1-c1ccc2c(c1)OCCCNc1c(ncnc1C1CC1)-c1ncc3cnn(c3n1)C2 [Example 10, 1^6-cyclopropyl-4^4-(1-isopropyl-4-(trifluoromethyl)-1H-imidazol-2-yl)-2^1H-5-oxa-9-aza-2(6,1)-pyrazolo[3,4-d]pyrimidina-1(5,4)-pyrimidina-4(1,2)-benzenacyclononaphane] | ≤ 100 nM |
| CC(C)n1cc(C(F)(F)F)nc1-c1ccc2c(c1)OCCNc1ncnc(C3CC3)c1-c1ncc3cnn(c3n1)C2 [Example 11, 1^6-cyclopropyl-4^4-(1-isopropyl-4-(trifluoromethyl)-1H-imidazol-2-yl)-2^1H-5-oxa-8-aza-2(6,1)-pyrazolo[3,4-d]pyrimidina-1(5,4)-pyrimidina-4(1,2)-benzenacyclooctaphane] | ≤ 100 nM |
| CC(C)n1cc(C(F)(F)F)nc1-c1ccc2c(c1)OCC1(CC1)COc1ncnc(C3CC3)c1-c1ncc3cnn(c3n1)C2 [Example 12, 6′-cyclopropyl-4′-(1-isopropyl-4-(trifluoromethyl)-1H-imidazol-2-yl)spiro[cyclopropane-1,7′-5,9-dioxa-2(6,1)-pyrazolo[3,4-d]pyrimidina-1(5,4)-pyrimidina-4(1,2)-benzenacyclononaphane]] | 100 to 1000 nM |
| FC(F)(F)c1cn(C2CC2)c(-c2ccc3c(c2)OCCOc2ncnc(C4CC4)c2-c2ncc4cnn(c4n2)C3)n1 [Example 13, 1^6-cyclopropyl-4^4-(1-cyclopropyl-4-(trifluoromethyl)-1H-imidazol-2-yl)-2^1H-5,8-dioxa-2(6,1)-pyrazolo[3,4-d]pyrimidina-1(5,4)-pyrimidina-4(1,2)-benzenacyclooctaphane] | ≤ 100 nM |
| CC(C)n1cc(C(F)(F)F)nc1-c1ccc2c(c1)NCCOc1ncnc(C3CC3)c1-c1ncc3cnn(c3n1)C2 [Example 14, 1^6-cyclopropyl-4^4-(1-isopropyl-4-(trifluoromethyl)-1H-imidazol-2-yl)-2^1H-8-oxa-5-aza-2(6,1)-pyrazolo[3,4-d]pyrimidina-1(5,4)-pyrimidina-4(1,2)-benzenacyclooctaphane] | ≤ 100 nM |
| CC(C)n1cc(C(F)(F)F)nc1-c1ccc2c(c1)OCCOc1ncnc(C3CC3)c1-c1ncc3ccc(=O)n(c3n1)C2 [Example 16, 1^6-cyclopropyl-4^4-(1-isopropyl-4-(trifluoromethyl)-1H-imidazol-2-yl)-2^7,2^8-dihydro-5,8-dioxa-2(2,8)-pyrido[2,3-d]pyrimidina-1(5,4)-pyrimidina-4(1,2)-benzenacyclooctaphan-2^7-one] | ≤ 100 nM |
| CC(C)n1cc(C(F)(F)F)nc1-c1ccc2c(c1)OCCCOc1ncnc(C3CC3)c1-c1ncc3ccc(=O)n(c3n1)C2 [Example 17, 1^6-cyclopropyl-4^4-(1-isopropyl-4-(trifluoromethyl)-1H-imidazol-2-yl)-2^7,2^8-dihydro-5,9-dioxa-2(2,8)-pyrido[2,3-d]pyrimidina-1(5,4)-pyrimidina-4(1,2)-benzenacyclononaphan-2^7-one] | ≤ 100 nM |
| O=c1ccc2cnc3nc2n1Cc1ccc(-c2nc(C(F)(F)F)cn2C2CC2)cc1CCOc1c-3ncnc1C1CC1 [Example 18, 1^6-cyclopropyl-4^4-(1-cyclopropyl-4-(trifluoromethyl)-1H-imidazol-2-yl)-2^7,2^8-dihydro-7-oxa-2(2,8)-pyrido[2,3-d]pyrimidina-1(5,4)-pyrimidina-4(1,2)-benzenacycloheptaphan-2^7-one] | ≥ 1000 nM |
| CC(C)n1cc(C(F)(F)F)nc1-c1ccc2c(c1)OCCCNc1ncnc(C3CC3)c1-c1ncc3ccc(=O)n(c3n1)C2 [Example 19, 1^6-cyclopropyl-4^4-(1-isopropyl-4-(trifluoromethyl)-1H-imidazol-2-yl)-2^7,2^8-dihydro-5-oxa-9-aza-2(2,8)-pyrido[2,3-d]pyrimidina-1(5,4)-pyrimidina-4(1,2)-benzenacyclononaphan-2^7-one] | 100 to 1000 nM |
| CC(C)n1cc(C(F)(F)F)nc1-c1ccc2c(c1)NCCCOc1ncnc(C3CC3)c1-c1ncc3ccc(=O)n(c3n1)C2 [Example 20, 1^6-cyclopropyl-4^4-(1-isopropyl-4-(trifluoromethyl)-1H-imidazol-2-yl)-2^7,2^8-dihydro-9-oxa-5-aza-2(2,8)-pyrido[2,3-d]pyrimidina-1(5,4)-pyrimidina-4(1,2)-benzenacyclononaphan-2^7-one] | ≤ 100 nM |
| FC(F)(F)c1cn(C2CC2)c(-c2ccc3c(c2)OCCOc2ncnc(C4CC4)c2-c2ncc4ccc(n4n2)C3)n1 [Example 21, (Z)-1^6-cyclopropyl-4^4-(1-cyclopropyl-4-(trifluoromethyl)-1H-imidazol-2-yl)-5,8-dioxa-2(2,7)-pyrrolo[2,1-f][1,2,4]triazina-1(5,4)-pyrimidina-4(1,2)-benzenacyclooctaphane] | ≤ 100 nM |
| CC(C)n1cc(C(F)(F)F)nc1-c1ccc2c(c1)N(C)CCCOc1ncnc(C3CC3)c1-c1ncc3cnn(c3n1)C2 [Example 23, 1^6-cyclopropyl-4^4-(1-isopropyl-4-(trifluoromethyl)-1H-imidazol-2-yl)-5-methyl-2^1H-9-oxa-5-aza-2(6,1)-pyrazolo[3,4-d]pyrimidina-1(5,4)-pyrimidina-4(1,2)-benzenacyclononaphane] | ≥ 1000 nM |
| CC(C)n1cc(C(F)(F)F)nc1-c1ccc2c(c1)NCCOc1ncnc(C3CC3)c1-c1ncc3ccc(=O)n(c3n1)C2 [Example 24, 1^6-cyclopropyl-4^4-(1-isopropyl-4-(trifluoromethyl)-1H-imidazol-2-yl)-2^7,2^8-dihydro-8-oxa-5-aza-2(2,8)-pyrido[2,3-d]pyrimidina-1(5,4)-pyrimidina-4(1,2)-benzenacyclooctaphan-2^7-one] | ≤ 100 nM |
